Measured values: paper PMC4192545, “Suramin Inhibits Hsp104 ATPase and Disaggregase Activity” (PLoS ONE, 2014)

Assays:
Hsp104^T317A = target: T1, Hsp104^T317A (Saccharomyces cerevisiae, UniProt P31539, T317A); experiment: Luciferase reactivation, Hsp104^T317A; type: biochemical, yeast; conditions: ATP:ATPγS 1:1
T1 construct: made in house; host or cells: E. coli BL21-DE3 RIL
Description: Luciferase reactivation was performed as described, [37]. To assemble aggregates, firefly luciferase (50 µM) in luciferase refolding buffer (LRB, 25 mM HEPES-KOH, 7.4, 150 mM KAOc, 10 mM MgAOc, 10 mM DTT) with 6 M urea was incubated at 30°C for 20 min. Luciferase was then rapidly diluted 100-fold into LRB, divided into 100 µL aliquots, snap frozen in liquid N2, and stored at −80°C. For reactivation assays, aggregated luciferase (50 nM) was incubated with Hsp104 (1 µM hexamer), plus 2.6 mM ATPγS, 2.6 mM ATP and an ATP regeneration system (1 mM creatine phosphate, 0.25 µM creatine kinase (Roche Applied Science)) for 90 minutes at 25°C. Luciferase assay system was purchased from Promega. Luciferase activity was assessed by luminescence measured on a Safire^2 microplate reader (Tecan, Männedorf, Switzerland). The half maximal inhibitory concentration (IC50) was calculating by fitting luciferase-refolding data at different Suramin concentrations with Prism (GraphPad Software, Inc., La Jolla, CA).
Figure 7 Hsp104 variants respond differently to Suramin than Hsp104^WT. (A) Hsp104 variants (0.25 µM monomer) were incubated for 10 min with ATP (1 mM) and varying concentrations of Suramin. The amount of Pi produced was measured by absorbance at 635 nm. Absorbance values were normalized to the absorbance produced by each Hsp104 variant in the absence of inhibitor. Values represent mean ±S.D. (n = 6). (B) Urea-denatured firefly luciferase aggregates were incubated for 90 min at 25°C with Hsp104 variants (1 µM hexamer) plus 1∶1 mixtures of ATP and ATPγS (or ATP alone) and varying concentrations of Suramin. Luciferase reactivation was then determined and normalized to untreated disaggregase activity for each variant in the presence of ATPγS: ATP (or ATP alone). 1∶1 mixtures of ATP and ATPγS were used for Hsp104^WT and Hsp104^T317A, while ATP alone was used for Hsp104^A503V and Hsp104^N728A. Values represent mean ±S.D. (n = 6–12).

Hsp104 = target: T2, Hsp104 (Saccharomyces cerevisiae, UniProt P31539); experiment: Gel filtration of Hsp104 (hexamerization); parameters: species or system yeast; conditions: Suramin 100 µM, with or without ATP 1 mM
T2 construct: made in house; host or cells: E. coli BL21-DE3 RIL
Description: Hsp104 was diluted into ATPase buffer with or without Suramin (100 µM) in the presence or absence of ATP (1 mM). The Hsp104 concentration was adjusted to 120 µM monomer and 20 µL of sample were fractionated by a Superdex 200 10/300 column (GE Healthcare Life Sciences, Piscataway, NJ) at room temperature and at a flow rate of 0.5 mL per minute in line with an Optilab T-rEX Refractive Interferometer (Wyatt Technologies, Santa Barbara, CA). Molecular weight markers were purchased from Bio-Rad Laboratories (Hercules, CA).

T1 sequence (P31539 whole entry T317A): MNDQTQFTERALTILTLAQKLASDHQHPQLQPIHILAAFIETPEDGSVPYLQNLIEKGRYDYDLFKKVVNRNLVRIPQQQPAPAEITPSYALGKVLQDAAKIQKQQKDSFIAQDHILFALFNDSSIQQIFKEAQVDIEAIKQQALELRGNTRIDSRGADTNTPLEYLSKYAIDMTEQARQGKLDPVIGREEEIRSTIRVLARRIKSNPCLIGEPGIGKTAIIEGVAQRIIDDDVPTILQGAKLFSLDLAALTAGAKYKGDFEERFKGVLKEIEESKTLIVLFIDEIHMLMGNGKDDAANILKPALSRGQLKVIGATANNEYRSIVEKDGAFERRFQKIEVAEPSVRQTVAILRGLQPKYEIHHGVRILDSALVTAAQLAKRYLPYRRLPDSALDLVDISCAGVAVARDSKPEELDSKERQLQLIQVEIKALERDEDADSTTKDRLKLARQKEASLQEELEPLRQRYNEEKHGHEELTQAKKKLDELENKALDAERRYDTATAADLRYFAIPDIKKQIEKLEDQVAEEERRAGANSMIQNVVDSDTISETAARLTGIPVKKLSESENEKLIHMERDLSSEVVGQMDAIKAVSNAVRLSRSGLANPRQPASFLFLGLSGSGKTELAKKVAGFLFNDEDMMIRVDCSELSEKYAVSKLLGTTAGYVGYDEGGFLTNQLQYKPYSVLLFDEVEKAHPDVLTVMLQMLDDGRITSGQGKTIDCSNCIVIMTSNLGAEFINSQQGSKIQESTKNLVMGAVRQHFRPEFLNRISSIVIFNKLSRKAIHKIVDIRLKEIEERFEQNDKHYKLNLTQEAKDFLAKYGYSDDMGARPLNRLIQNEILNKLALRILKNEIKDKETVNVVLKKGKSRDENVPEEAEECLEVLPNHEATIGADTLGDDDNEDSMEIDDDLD
T2 sequence (P31539 whole entry): as the sequence (P31539 whole entry T317A) above, with A317T counted along it

SMILES: Cc1ccc(C(=O)Nc2ccc(S(=O)(=O)O)c3cc(S(=O)(=O)O)cc(S(=O)(=O)O)c23)cc1NC(=O)c1cccc(NC(=O)Nc2cccc(C(=O)Nc3cc(C(=O)Nc4ccc(S(=O)(=O)O)c5cc(S(=O)(=O)O)cc(S(=O)(=O)O)c45)ccc3C)c2)c1 [Suramin]
- Hsp104^T317A refolding activity (Hsp104^T317A; Suramin 1 µM): approximately 75%
- Hsp104^T317A refolding activity (Hsp104^T317A; Suramin 50 µM): approximately 8%
- IC50 (Hsp104^T317A; based on refolding data): ~20.5 µM
- Effect on Hsp104 hexamerization (gel filtration elution profile) (Hsp104): does not interfere with hexamerization
